Assay results from patent publication US4716162A, “Fused 5 ring heterocyclic compounds, their preparation, and their anti-arrhythmic and diuretic use” (Sankyo Company, Limited, priority 1984, dated 1987).
≈ marks a conversion by molar mass, not a printed value. Counter-ions that a name gives are not always drawn.

Test system: male mice of the DDY strain
Test: Diuretic effect: urine volume and sodium ion concentration by the filter paper method (Mineshita et al)
Assay type: in vivo
Conditions: 100 mg/kg p.o.
Experimental: The diuretic test was performed on groups of 5 male mice of the DDY strain, each weighing between 26 and 30 g. The test solutions were prepared by dissolving the test compounds in physiological saline containing 0.3% w/v carboxymethylcellulose and were administered orally to the animals. The urine volume and sodium ion concentration were estimated by the filter paper method [Mineshita et al: Pharmacometrics, 4, 33 (1970)]. In Table 13, the increase of the urine volume and sodium ion concentration are shown as a percentage of the values of a control group to which no active compound was administered.

Compound | Urine Volume (increase as a percentage of the values of a control group) [%] | δNa^+ (increase of sodium ion concentration as a percentage of the values of a control group) [%]
O=C(O)[C@@H]1C=C2c3ccccc3N3C(=O)C[C@H]4CC[C@@H]1[C@H]4[C@H]23 (relative stereo) [Compound No. 14, 1,2,2aβ,3α,11,11aβ,11bβ,11cα-Octahydro-10-oxo-10H-cyclopenta[d,e]indolo[3,2,1-i,j]quinoline-3α-carboxylic acid] | 231 | 245
O=C(O)[C@@H]1C=C2c3cc(Br)ccc3N3C(=O)C[C@H]4CC[C@@H]1[C@H]4[C@H]23 (relative stereo) [Compound No. 18] | 86 | 168

Test system: arrhythmias induced by ischemic cardiac dysfunction caused by ligation of the coronary arteries of a perfusing heart
Test: Anti-arrhythmic effect: protection against arrhythmias induced by ischemia (coronary artery ligation and re-perfusion) of a perfusing heart, method of Opie et al
Set-up: species or system male rats of Sprague-Dawley strain
Conditions: Rattus norvegicus, read-out: ED70 (concentration required for 70% suppression of the arrhythmias during ligation and after re-perfusion)
Experimental: The test was performed according to the method of L. H. Opie et al [Cardiovascular Research, 12, 212 (1978)] using male rats of Sprague-Dawley strain weighing between 230 and 330 g. The antiarrhythmic effect was estimated by the ability of the test compound administered intravascularly to protect against the arrhythmias induced by ischemic cardiac dysfunction caused by ligation of the coronary arteries of a perfusing heart.
The test compounds were dissolved in dimethyl sulfoxide, and the required amount of injectible solution was prepared by mixing this with Krebs-Henseleit solution. The degree of protecting effect is reported as the concentration (ED70) required for 70% suppression of the arrhythmias during ligation and after re-perfusion.

Compound | EC70 [µg/mL]
COC(=O)[C@@H]1Cc2c3n(c4ccccc24)C(=O)C[C@H]2CC[C@@H]1[C@@H]32 (relative stereo) [Compound No. 35, Methyl 1,2,2aβ,3α,4,11,11aβ,11bβ-octahydro-10-oxo-10H-cyclopenta[d,e]indolo[3,2,1-i,j]quinoline-3β-carboxylate] | 4.2 (≈ 13.6 µM)

Same assay, conditions: rat perfusing heart, test compound administered intravascularly; read-out: ED70 (concentration required for 70% suppression of the arrhythmias during ligation and after re-perfusion)

Compound | EC70 [µg/mL]
CC(C)N(CCC(C(N)=O)(c1ccccc1)c1ccccn1)C(C)C (centres unmarked) [Disopyramide, reference compound] | 10 (≈ 29.5 µM)
N[C@@H]1Cc2c3n(c4ccccc24)C(=O)C[C@H]2CC[C@@H]1[C@@H]32 (relative stereo) [Compound No. 55, 3β-Amino-1,2,2aβ,3α,4,11,11aβ,11bβ-octahydrocyclopenta[d,e]indolo[3,2,1-i,j]quinolin-10-one maleate] | 0.64
CC[C@@]12CC[C@H]3[C@H](N)Cc4c(n(c5ccccc45)C(=O)C1)[C@H]32 (relative stereo) [Compound No. 59] | 0.23 (≈ 0.781 µM)
CCN(CC)CC(=O)Nc1c(C)cccc1C [Lidocaine, reference compound] | 5 (≈ 21.3 µM)
CN(C)[C@@H]1Cc2c3n(c4ccccc24)C(=O)C[C@H]2CC[C@@H]1[C@@H]32 (relative stereo) [Compound No. 65, 1,2,2aβ,3α,4,11,11aβ,11bβ-Octahydro-3β-dimethylaminocyclopenta[d,e]indolo[3,2,1-i,j]quinolin-10-one maleate] | 0.3
C[C@@]12C3=C[C@@H](N)[C@@H]4CC[C@H](CC(=O)N1c1ccccc13)[C@@H]42 (relative stereo) [Compound No. 26, 3β-Amino-1,2,2aβ,3α,11,11aβ,11bβ,11cα-octahydro-11cα-methylcyclopenta[d,e]indolo[3,2,1-i,j]quinolin-10-one hydrochloride] | 0.9
N[C@@H]1Cc2c3n(c4ccccc24)C(=O)C[C@H]2CCCC[C@@H]1[C@@H]32 (relative stereo) [Compound No. 228] | 0.9 (≈ 3.06 µM)
N[C@@H]1Cc2c3n(c4ccccc24)C(=O)C[C@H]2CCC[C@@H]1[C@@H]32 (relative stereo) [Compound No. 106, 4β-amino-2,3,3aβ,4α,5,12,12aβ,12bβ-octahydrobenzo[d,e]indolo[3,2,1-i,j]quinolin-11(1H)-one maleate] | 1
CC[C@@]12CCC[C@H]3[C@H](N)Cc4c(n(c5ccccc45)C(=O)C1)[C@H]32 (relative stereo) [Compound No. 110] | 0.16 (≈ 0.519 µM)

Test system: heart beat rate in the ventricle of mice placed in chloroform gas
Test: Anti-arrhythmic effect, Block's method (chloroform-induced, ventricular heart beat rate by electrocardiogram)
Assay type: in vivo, mice (ICR strain)
Conditions: Mus musculus, ip, read-out: ED50 % (effective = heart beat rate in the ventricle reduced to less than 400 beats/minute)
Experimental: Test procedures: (Block's method)
Onto a 2 liter desiccator were placed 150 ml of chloroform and this was stirred with a magnetic stirrer while being heating by an incandescent lamp. When the desiccator was saturated with chloroform gas, mice (ICR strain, body weight between 20 and 25 g) were placed therein for 2 minutes and then the chest was opened. Silver dipolar electrodes were contacted with the ventricles and electrocardiograms were taken for 1 minute. Within 10-20 minutes, the test compound was administered intraperitoneally in a carboxymethyl-cellulose solution as vehicle.

Compound | ED50 [mg/kg]
N[C@@H]1Cc2c3n(c4ccc(O)cc24)C(=O)C[C@@]2(c4ccccc4)CCC[C@@H]1[C@@H]32 (relative stereo) [Compound No. 162] | 12
CC[C@]12CCC[C@@H]3[C@H]1c1c(c4cc(O)ccc4n1C(=O)C2)C[C@H]3C(=O)NNCCN1CCCC1 (relative stereo) [Compound No. 146, 7-Hydroxy-12aβ-ethyl-4β-{3-[2-(1-pyrrolidinyl)ethyl]carbazoyl}-2,3,3aβ,4α,5,12,12aβ,12bβ-octahydrobenzo[d,e]indolo[3,2,1-i,j]quinolin-11(1H)-one hemihydrate] | 22.5
CCC[C@@]12CCC[C@H]3[C@H](N)Cc4c(n(c5ccc(O)cc45)C(=O)C1)[C@H]32 (relative stereo) [Compound No. 198] | 4.2
CC[C@@]12CCC[C@H]3[C@H](N)Cc4c(n(c5ccc(O)cc45)C(=O)C1)[C@H]32 (relative stereo) [Compound No. 197, 4β-Amino-12aβ-ethyl-7-hydroxy-2,3,3aβ,4α,5,12,12aβ,12bβ-octahydrobenzo[d,e]indolo[3,2,1-i,j]quinolin-11(1H)-one hemihydrate] | 22.5
CCC[C@@]12CCC[C@H]3[C@H](N)Cc4c(n(c5ccccc45)C(=O)C1)[C@H]32 (relative stereo) [Compound No. 96] | 3.6
CC[C@@]12CCC[C@H]3[C@H](N)Cc4c(n(c5ccccc45)C(=O)C1)[C@H]32 (relative stereo) [Compound No. 110] | 14

Test system: rats with ischemic brains
Test: Improvement of brain function: time until recovery of the righting reflex in rats with ischemic brains
Assay type: in vivo, male rats of the Wistar strain
Conditions: 10 mg/kg i.p.
Experimental: A test for recovery of brain function was performed using rats with ischemic brains. The bilaterial carotid arteries of male rats of the Wistar strain were ligated under anesthesia with thiopental (50 mg/kg, intraperitoneally) and the test compounds and a 0.5% w/v carboxymethylcellulose solution (vehicle) were intraperitoneally administered at the same time. The time until recovery of the righting relex was measured to give an index of the brain function. […] The known compound, Pentoxifylline, was tested in the same way, for comparison.

Compound | Ratio to Control (time until recovery of the righting reflex)
O=C(O)[C@@H]1C=C2c3cc(Br)ccc3N3C(=O)C[C@H]4CC[C@@H]1[C@H]4[C@H]23 (relative stereo) [Compound No. 18] | 0.84

Same assay, conditions: 30 mg/kg i.p.

Compound | Ratio to Control (time until recovery of the righting reflex)
CC(=O)CCCCn1c(=O)c2c(ncn2C)n(C)c1=O [Pentoxifylline, reference compound] | 0.82
O=C(O)[C@@H]1C=C2c3cc(Br)ccc3N3C(=O)C[C@H]4CC[C@@H]1[C@H]4[C@H]23 (relative stereo) [Compound No. 18] | 0.68
